Laboratory results from patent publication US20210309978A1, “POLYNUCLEOTIDE SEQUENCE ENCODING A LOCAL SOURCED NOVEL ESTERASE” (ISTANBUL TEKNIK UNIVERSITESI, priority 2018, published 2021).

How the values were obtained:
esterase enzyme [1] = assay: Effect of metals on enzyme activity; format: biochemical, microflora of Ac1göl (Aci Lake); conditions: for Metal tolerance, This study: the enzyme of the invention in presence of metal ion
[2] = system: new true lipase isolated through metagenomic approach; conditions: literature enzyme in presence of metal ion; cited from earlier work
[3] = system: thermophilic and halophilic esterase from Janibacter sp. R02; conditions: literature enzyme in presence of metal ion; cited from earlier work
[4] = system: Salt-Tolerant Esterase from the Deep-Sea Sediment of the South China Sea; conditions: literature enzyme in presence of metal ion; cited from earlier work
esterase enzyme [5] = assay: Effect of solutions (solvents) on enzyme stability (24 hours incubation); format: biochemical, microflora of Ac1göl (Aci Lake); conditions: for Effect of solutions on stability, Activity (%) 15% Solution: enzyme incubated 24 hours in buffer containing 15% solution; for Effect of solutions on stability, Activity (%) 30% Solution: enzyme incubated 24 hours in buffer containing 30% solution
Procedure: (§1) 6. […] The final concentration of the enzyme and substrate have been 1 μM and 1 mM respectively and absorbance measurements have been taken at 410 nm. The activity has been calculated by means of the below formula and one unit of activity has been defined as the enzyme amount which produces 1 μmol product in 1 minute.
(§2) Activity (U/L)=[(ΔAbs/t)/(ε*d)]*106*Vt/Vs • ΔAbs=Absorbance change; t=time (minute); ε=extinction coefficient (M−1 cm−1); d=light path (cm); Vt=total reaction volume; Vs=enzyme volume used in reaction.
(§3) Additionally, the effect of different solutions (hexane, chloroform, acetone, dimethyl formamide (DMF), dimethyl sulphoxide (DMSO), 2-propanol, butanol, 1-propanol, ethanol, methanol and glycerol) on the activity and stability of the enzyme have been measured. In the activity tests, 10% solution has been added into the reaction and in the stability tests the enzyme has been incubated for 24 hours in a buffer solution containing 15% and 30% solution.

esterase enzyme [6] = assay: Effect of solutions (solvents) on enzyme activity; format: biochemical, microflora of Ac1göl (Aci Lake); conditions: for Effect of solutions on activity, Activity (%): 10% solution added into the reaction
Procedure: as §1, §2, §3

[7] = system: heavy metal-resistant, thermophilic esterase from a Red Sea Brine Pool; conditions: literature enzyme in presence of metal ion; cited from earlier work
esterase enzyme [8] = assay: Effects of inhibitors and detergents on enzyme activity; format: biochemical, microflora of Ac1göl (Aci Lake)
esterase enzyme [9] = assay: Effect of sodium chloride on enzyme stability (24 hours incubation); format: biochemical, microflora of Ac1göl (Aci Lake)
Procedure: (§4) 6. Standard activity test: Activity has been measured based on the pNP measurement that is obtained by the hydrolysis of the paranitfrophenol (pNP) esters by the enzyme (Winkler and Stuckmann, 1979). The final concentration of the enzyme and substrate have been 1 μM and 1 mM respectively and absorbance measurements have been taken at 410 nm. The activity has been calculated by means of the below formula and one unit of activity has been defined as the enzyme amount which produces 1 μmol product in 1 minute.
as §2
(§5) The effect of sodium chloride on the activity (5%, 10%, 15%, 20% and 25% NaCl) and the stability (10%, 15%, 20% and 25% NaCl) of the enzyme has been determined similarly. The enzyme has been incubated in a buffer solution comprising sodium chloride at the defined amounts for 24 hours during stability tests.

esterase enzyme [10] = assay: Effect of sodium chloride on enzyme activity; format: biochemical, microflora of Ac1göl (Aci Lake)
Procedure: as §4, §2, §5

Q: With `O=S(=O)([O-])[O-].[Fe+2]` [FeSO4] as the compound, how does the “Activity (%) (1 mM metal)” value (esterase enzyme [1]) read?
A: The value was 115.7 ± 2.3%.

Q: What about the “Activity (%) (5 mM metal)” value (esterase enzyme [1]) of the same compound?
A: The value was 0.0%.

Q: Which “Metal tolerance, Glogauer et al, 2011” value [2] does the source give for `[Fe+2]` [Fe^2+] here?
A: The value was 33.

Q: And the “Metal tolerance, Castilla et al, 2017” value [3]?
A: Its value is 55.

Q: And the “Metal tolerance, This study” value (esterase enzyme [1])?
A: Its value is 116.

Q: What about the “Metal tolerance, Zhang et al, 2017” value [4] of the same compound?
A: The value was 85.

Q: With `OCC(O)CO` [Glycerol, glycerol] as the compound, how does the “Effect of solutions on stability, Activity (%) 15% Solution” value (from here on “Effect of solutions … (%) 15% Solution”) (esterase enzyme [5]) read?
A: Its value is 113.3 ± 1.8%.

Q: What about the “Effect of solutions on stability, Activity (%) 30% Solution” value (“Effect of solutions … (%) 30% Solution” for short) (esterase enzyme [5]) of the same compound?
A: Its value is 106.9 ± 3.1%.

Q: What about the “Effect of solutions on activity, Activity (%)” value (esterase enzyme [6]) of the same compound?
A: Its value is 104.2 ± 6.2%.

Q: What about the increase of activity (esterase enzyme [6]; in the presence of 10% solvents) of the same compound?
A: The increase of activity was 4%.

Q: With `CCCCCC` [Hexane, hexane] as the compound, how does the “Effect of solutions … (%) 15% Solution” value (esterase enzyme [5]) read?
A: Its value is 113.6 ± 8.5%.

Q: And the “Effect of solutions … (%) 30% Solution” value (esterase enzyme [5])?
A: The value was 100.2 ± 4.9%.

Q: What about the “Effect of solutions on activity, Activity (%)” value (esterase enzyme [6]) of the same compound?
A: Its value is 22.6 ± 4.9%.

Q: For `[Cl-].[K+]` [KCl], which “Activity (%) (1 mM metal)” value (esterase enzyme [1]) is on record?
A: The value was 127.9 ± 3.9%.

Q: And the “Activity (%) (5 mM metal)” value (esterase enzyme [1])?
A: The value was 98.2 ± 3.4%.

Q: For `[K+]` [K^+], which “Metal tolerance, Glogauer et al, 2011” value [2] is on record?
A: The value was 122.

Q: What about the “Metal tolerance, Castilla et al, 2017” value [3] of the same compound?
A: Its value is 90.

Q: And the “Metal tolerance, This study” value (esterase enzyme [1])?
A: The value was 128.

Q: And the “Metal tolerance, Zhang et al, 2017” value [4]?
A: The value was 108.

Q: Which results are given for `CO` [Methanol, methanol]?
A: Effect of solutions on stability, Activity (%) 15% Solution (esterase enzyme [5]): 108.5 ± 0.2%; Effect of solutions on stability, Activity (%) 30% Solution (esterase enzyme [5]): 99.4 ± 6.6%; Effect of solutions on activity, Activity (%) (esterase enzyme [6]): 81.1 ± 1.1%; Effect of solutions on activity, Activity (%) (esterase enzyme [6]; listed as methanol): 81%

Q: Which results are given for `[Cl-].[Cl-].[Mg+2]` [MgCl2]?
A: Activity (%) (1 mM metal) (esterase enzyme [1]): 130.2 ± 0.6%; Activity (%) (5 mM metal) (esterase enzyme [1]): 104.6 ± 3%

Q: Which results are given for `O=S(=O)([O-])[O-].[Mn+2]` [MnSO4]?
A: Activity (%) (1 mM metal) (esterase enzyme [1]): 130.4 ± 0.4%; Activity (%) (5 mM metal) (esterase enzyme [1]): 110.3 ± 3.5%

Q: Which “Metal tolerance, Glogauer et al, 2011” value [2] does the source give for `[Mn+2]` [Mn^2+] here?
A: The value was 47.

Q: What about the “Metal tolerance, Castilla et al, 2017” value [3] of the same compound?
A: The value was 75.

Q: And the “Metal tolerance, This study” value (esterase enzyme [1])?
A: The value was 130.

Q: And the “Metal tolerance, Zhang et al, 2017” value [4]?
A: The value was 76.

Q: What about the “Metal tolerance, Mohamed et al, 2013” value [7] of the same compound?
A: The value was 112.

Q: For `[Cl][Ni][Cl]` [NiCl2], which “Activity (%) (1 mM metal)” value (esterase enzyme [1]) is on record?
A: Its value is 110.4 ± 6.1%.

Q: And the “Activity (%) (5 mM metal)” value (esterase enzyme [1])?
A: Its value is 0.5%.

Q: Which results are given for `[Ni+2]` [Ni^2+]?
A: Metal tolerance, Glogauer et al, 2011 [2]: 66; Metal tolerance, Castilla et al, 2017 [3]: 75; Metal tolerance, This study (esterase enzyme [1]): 110; Metal tolerance, Zhang et al, 2017 [4]: 68

Q: Which “Activity (%) (1 mM inh.)” value (esterase enzyme [8]) does the source give for `O=S(=O)(F)Cc1ccccc1` [PMSF, phenylmethanesulfonyl fluoride] here?
A: The value was 1.3 ± 0.1%.

Q: And the “Activity (%) (5 mM inh.)” value (esterase enzyme [8])?
A: Its value is 0.2%.

Q: What does the source list for `CCCCCCCCCCCCOS(=O)(=O)[O-].[Na+]` [SDS, sodium dodecyl sulphate]?
A: Activity (%) (1 mM inh.) (esterase enzyme [8]): 85.6 ± 2.9%; Activity (%) (5 mM inh.) (esterase enzyme [8]): 5.0 ± 0.8%

Q: With `O=S(=O)([O-])[O-].[Zn+2]` [ZnSO4] as the compound, how does the “Activity (%) (1 mM metal)” value (esterase enzyme [1]) read?
A: The value was 6.1 ± 3.1%.

Q: And the “Activity (%) (5 mM metal)” value (esterase enzyme [1])?
A: The value was 1.3 ± 1.2%.

Q: For `[Zn+2]` [Zn^2+], which “Metal tolerance, Glogauer et al, 2011” value [2] is on record?
A: The value was 45.

Q: What about the “Metal tolerance, Castilla et al, 2017” value [3] of the same compound?
A: The value was 160.

Q: And the “Metal tolerance, This study” value (esterase enzyme [1])?
A: The value was 6.

Q: And the “Metal tolerance, Zhang et al, 2017” value [4]?
A: The value was 25.

Q: And the “Metal tolerance, Mohamed et al, 2013” value [7]?
A: The value was 85.

Q: What does the source list for `[Mg+2]` [mg^2+]?
A: Metal tolerance, Glogauer et al, 2011 [2]: 65; Metal tolerance, Castilla et al, 2017 [3]: 160; Metal tolerance, This study (esterase enzyme [1]): 130; Metal tolerance, Zhang et al, 2017 [4]: 97; Metal tolerance, Mohamed et al, 2013 [7]: 91

Q: With `[Cl-].[Na+]` [sodium chloride] as the compound, how does the “The effect of sodium chloride on stability, Activity (%)” value (“The effect … on stability, Activity (%)” for short) (esterase enzyme [9]; Concentration 10.0 %) read?
A: The value was 100 ± 4.8%.

Q: And the “The effect … on stability, Activity (%)” value (esterase enzyme [9]; Concentration 15.0 %)?
A: Its value is 99 ± 1.8%.

Q: What about the “The effect … on stability, Activity (%)” value (esterase enzyme [9]; Concentration 20.0 %) of the same compound?
A: Its value is 102.7 ± 1%.

Q: And the “The effect … on stability, Activity (%)” value (esterase enzyme [9]; Concentration 25.0 %)?
A: The value was 101.4 ± 4.5%.

Q: What about the “The effect of sodium chloride on activity, Activity (%)” value (“The effect … on activity, Activity (%)” below) (esterase enzyme [10]; Concentration 1 %) of the same compound?
A: The value was 100 ± 1.9%.

Q: And the “The effect … on activity, Activity (%)” value (esterase enzyme [10]; Concentration 5 %)?
A: The value was 90.2 ± 2.1%.

Q: And the “The effect … on activity, Activity (%)” value (esterase enzyme [10]; Concentration 10 %)?
A: Its value is 79.2 ± 5%.

Q: What about the “The effect … on activity, Activity (%)” value (esterase enzyme [10]; Concentration 15 %) of the same compound?
A: Its value is 52 ± 5.3%.

Q: What about the “The effect … on activity, Activity (%)” value (esterase enzyme [10]; Concentration 20 %) of the same compound?
A: Its value is 39.2 ± 6.3%.

Q: With NP-40 as the compound, how does the “Activity (%) (1 mM inh.)” value (esterase enzyme [8]) read?
A: Its value is 101.9 ± 6.8%.

Q: What about the “Activity (%) (5 mM inh.)” value (esterase enzyme [8]) of the same compound?
A: The value was 89.1 ± 1.5%.

Q: What does the source list for Triton X-100?
A: Activity (%) (1 mM inh.) (esterase enzyme [8]): 105.3 ± 2.4%; Activity (%) (5 mM inh.) (esterase enzyme [8]): 87.7 ± 3.2%

Q: Which “Activity (%) (1 mM inh.)” value (esterase enzyme [8]) does the source give for Tween-80 here?
A: The value was 107.2 ± 7.9%.

Q: What about the “Activity (%) (5 mM inh.)” value (esterase enzyme [8]) of the same compound?
A: The value was 80.7 ± 2.2%.

Q: Which “Effect of solutions … (%) 15% Solution” value (esterase enzyme [5]) does the source give for butanol here?
A: The value was 97.1 ± 3.3%.

Q: What about the “Effect of solutions … (%) 30% Solution” value (esterase enzyme [5]) of the same compound?
A: The value was 104.9 ± 2.4%.

Q: What about the “Effect of solutions on activity, Activity (%)” value (esterase enzyme [6]) of the same compound?
A: The value was 3.3 ± 3.3%.
